Data on 6 compounds can be found in patent US4318847A, “Physiologically active tetrapeptides” (Zaidan Hojin Biseibutsu Kagaku Kenkyu Kai, priority 1979, dated 1982).

*1 amine or outer side, *2 acyl side, *3 side chain or, on linkers, in order; H or OH if unused. Where a SMILES comes first, the peptide text is derived from it. [ ]: non-standard residue; d: D form. The star is where a group is joined. Sta = CC(C)C[C@H](N)[C@@H](O)CC(=O)O; Isovaleryl = CC(C)CC(=O)*; CO = O=C([*:1])[*:2]

The target of one test is aminopeptidase B (Homo sapiens, UniProt Q9H4A4). The conditions noted are these: prior art, U.S. Pat. No. 4,029,547; cited from earlier work.
Chain of aminopeptidase B (Q9H4A4 whole entry, species assumed): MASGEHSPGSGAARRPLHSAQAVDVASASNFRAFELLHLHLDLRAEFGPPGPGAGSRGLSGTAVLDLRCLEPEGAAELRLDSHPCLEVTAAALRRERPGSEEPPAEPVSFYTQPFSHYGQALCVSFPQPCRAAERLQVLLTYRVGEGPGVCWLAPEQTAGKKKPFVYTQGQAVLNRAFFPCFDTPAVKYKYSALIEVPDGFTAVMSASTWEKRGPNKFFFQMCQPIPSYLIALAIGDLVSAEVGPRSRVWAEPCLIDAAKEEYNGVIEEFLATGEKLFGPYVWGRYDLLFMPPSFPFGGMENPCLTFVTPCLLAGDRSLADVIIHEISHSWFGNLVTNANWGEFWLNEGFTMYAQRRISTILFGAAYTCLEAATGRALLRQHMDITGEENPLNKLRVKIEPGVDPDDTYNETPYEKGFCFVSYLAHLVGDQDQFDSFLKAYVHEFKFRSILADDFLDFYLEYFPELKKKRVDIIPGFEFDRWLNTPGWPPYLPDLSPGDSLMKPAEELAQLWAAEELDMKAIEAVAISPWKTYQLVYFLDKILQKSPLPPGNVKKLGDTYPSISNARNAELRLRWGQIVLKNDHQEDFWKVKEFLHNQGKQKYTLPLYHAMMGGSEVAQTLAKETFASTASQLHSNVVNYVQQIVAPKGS
The target of the next test is leucine aminopeptidase (Homo sapiens, UniProt P28838). The conditions noted are these: prior art, U.S. Pat. No. 4,029,547; cited from earlier work.
Chain of leucine aminopeptidase (P28838 whole entry): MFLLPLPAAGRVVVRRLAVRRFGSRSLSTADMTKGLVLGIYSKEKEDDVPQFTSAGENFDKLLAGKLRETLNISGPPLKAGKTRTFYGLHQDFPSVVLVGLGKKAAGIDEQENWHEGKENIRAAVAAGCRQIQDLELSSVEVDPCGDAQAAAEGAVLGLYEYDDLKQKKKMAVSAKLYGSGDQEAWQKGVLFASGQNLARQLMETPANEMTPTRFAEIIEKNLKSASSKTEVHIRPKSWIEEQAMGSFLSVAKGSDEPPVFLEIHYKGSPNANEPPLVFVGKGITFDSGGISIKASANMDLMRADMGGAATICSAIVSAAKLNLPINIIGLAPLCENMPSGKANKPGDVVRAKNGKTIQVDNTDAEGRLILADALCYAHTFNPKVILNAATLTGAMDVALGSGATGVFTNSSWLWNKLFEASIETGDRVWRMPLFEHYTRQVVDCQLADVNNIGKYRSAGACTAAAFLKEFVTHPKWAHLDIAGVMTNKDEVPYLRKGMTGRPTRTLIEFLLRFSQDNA
The next test has as its target aminopeptidase A (Homo sapiens, UniProt Q07075). Particulars: prior art; cited from earlier work.
For another test, the target named is T1, aminopeptidase A (AP-A) (Homo sapiens, UniProt Q07075).
T1 construct: an AP-A solution which was obtained by ammonium sulfate fractionation according to the method of Nagatsu et al; from tissue
T1 sequence (Q07075 whole entry): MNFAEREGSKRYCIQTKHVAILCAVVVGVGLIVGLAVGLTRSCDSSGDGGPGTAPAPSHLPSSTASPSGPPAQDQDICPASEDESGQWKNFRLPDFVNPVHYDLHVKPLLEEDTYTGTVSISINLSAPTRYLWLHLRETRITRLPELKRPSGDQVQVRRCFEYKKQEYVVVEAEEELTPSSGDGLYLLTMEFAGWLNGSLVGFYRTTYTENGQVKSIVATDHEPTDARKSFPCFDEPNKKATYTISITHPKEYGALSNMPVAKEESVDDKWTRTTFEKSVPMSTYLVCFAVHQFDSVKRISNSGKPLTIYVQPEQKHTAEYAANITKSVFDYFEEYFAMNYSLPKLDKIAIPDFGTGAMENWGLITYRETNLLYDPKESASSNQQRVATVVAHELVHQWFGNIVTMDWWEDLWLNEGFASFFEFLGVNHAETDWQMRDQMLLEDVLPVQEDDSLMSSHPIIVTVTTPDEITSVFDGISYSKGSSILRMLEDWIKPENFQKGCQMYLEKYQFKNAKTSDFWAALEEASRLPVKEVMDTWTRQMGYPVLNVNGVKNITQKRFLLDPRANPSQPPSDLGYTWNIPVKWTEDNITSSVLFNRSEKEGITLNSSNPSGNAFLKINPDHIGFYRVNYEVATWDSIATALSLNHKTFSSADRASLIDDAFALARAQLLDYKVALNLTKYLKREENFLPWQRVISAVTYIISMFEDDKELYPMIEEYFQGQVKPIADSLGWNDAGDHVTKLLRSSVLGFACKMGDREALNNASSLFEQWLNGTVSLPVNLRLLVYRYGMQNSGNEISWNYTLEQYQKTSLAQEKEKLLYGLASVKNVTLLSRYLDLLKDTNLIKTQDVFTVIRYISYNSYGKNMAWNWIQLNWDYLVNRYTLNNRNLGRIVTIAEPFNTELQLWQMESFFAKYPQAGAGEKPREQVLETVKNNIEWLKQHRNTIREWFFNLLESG
The experiment in a line: AP-A (E.C. 3,4,11,7) inhibition assay. The class given is biochemical. Particulars: L-α-glutamyl-β-naphthylamide substrate, pH 7.0, 37° C., 30 minutes; read-out: IC/50 AP--A: amount of the peptide to inhibit the intact activity of the target enzyme by 50% (converted). The protocol: That is, 0.25 ml of 2 mM L-α-glutamyl-β-naphthylamide, 0.54 ml of 0.1 M Tris-HCl buffer, pH 7.0, 0.01 ml of 0.1 M calcium chloride and 0.1 ml of a test sample in water were mixed and kept at 37° C. for 3 minutes. The reaction was initiated by addition of 0.1 ml of an AP-A solution which was obtained by ammonium sulfate fractionation according to the method of Nagatsu et al. After incubation at 37° C. for 30 minutes, 1 ml of 1.0 M acetate buffer, pH 4.2, containing 1.0 mg/ml Garnet GBC (orthoaminoazotoluene diazonium salt) and 10% Tween 20 (Atlas Chemical Co., U.S.A.) was added to the reaction solution and then allowed to stand at room temperature for 15 minutes. The absorbance of the test solution (a) was measured at 530 nm. The control solution without the test sample was used as the blank test (absorbance (b)). The inhibition percentage on aminopeptidase A was calculated as [(b-a)/b]x100.

Test [1] addresses T2, leucine aminopeptidase (Leu-AP) (Sus scrofa, UniProt P28839).
T2 construct: purchased Boehringer-Mannheim Co
T2 sequence (P28839 1-519): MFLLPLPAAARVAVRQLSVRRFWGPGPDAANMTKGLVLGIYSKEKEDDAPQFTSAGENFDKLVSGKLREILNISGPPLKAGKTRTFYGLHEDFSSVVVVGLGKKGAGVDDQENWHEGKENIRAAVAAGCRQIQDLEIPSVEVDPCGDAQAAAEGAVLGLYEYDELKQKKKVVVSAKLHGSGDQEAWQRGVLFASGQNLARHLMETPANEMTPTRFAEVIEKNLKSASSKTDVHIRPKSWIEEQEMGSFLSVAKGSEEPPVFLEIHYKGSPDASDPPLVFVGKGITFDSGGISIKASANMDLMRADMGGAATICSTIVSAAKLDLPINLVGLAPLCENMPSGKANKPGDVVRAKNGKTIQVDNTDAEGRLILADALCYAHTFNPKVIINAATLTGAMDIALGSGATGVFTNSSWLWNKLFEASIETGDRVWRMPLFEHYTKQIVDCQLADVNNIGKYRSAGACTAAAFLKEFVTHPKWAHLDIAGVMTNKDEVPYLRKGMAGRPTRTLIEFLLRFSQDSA
The experiment in a line: Leu-AP (E.C. 3,4,11,1) inhibition assay. It is filed as biochemical. Particulars: Leu-AP (Boehringer-Mannheim), leucyl-β-naphthylamide substrate, pH 7.6, 37° C., 30 minutes; read-out: IC/50 Leu--AP: amount of the peptide to inhibit the intact activity of the target enzyme by 50% (converted). The procedure: For enzyme assay, 0.25 ml of 2 mM […], 0.6 ml of 0.1 M Tris-HCl buffer, pH 7.6, and 0.1 ml of an aqueous solution containing a test compound were mixed and allowed to stand at 37° C. for 3 minutes. After a 20-fold dilution of Leu-AP (Boehringer-Mannheim Co.) in 0.1 M Tris-HCl buffer, pH 7.6 (0.05 ml) was added to the solution, the reaction was performed at 37° C. for 30 minutes. The inhibition percentage was measured as detailed in (1).

The target in test [2] is glycylprolylleucine tripeptidylaminopeptidase (Gly-Pro-Leu-AP). Briefly: Gly-Pro-Leu-AP inhibition assay. Particulars: enzyme from cell membrane fraction of rat liver, Hanks solution pH 7.2, 37° C., 30 minutes. It is filed as biochemical. The procedure:
According to the method of Aoyagi et al. (T. Aoyagi et al: BIOCHIMICA ET BIOPHYSICA ACTA 452, 131-143(1976)), after a reaction mixture consisting of 0.25 ml of 2 mM glycyl-L-α-prolyl-L-α-leucyl-β-naphthylamide (Buchem Fine Chemicals Co.), 0.6 ml of the Hanks solution, pH 7.2, and 0.1 ml of an aqueous test solution was kept at 37° C. for 3 minutes, 0.05 ml of a Gly-Pro-Leu-AP that was purified from the cell membrane fraction of the rat liver was added and the reaction was carried out at 37° C. for 30 minutes. The same procedure as described in (1) was used for calculation of the inhibition percentage.
The Hanks solution listed above was prepared by dissolving 8.0 g sodium chloride, 0.4 g potassium chloride, 0.14 g calcium chloride, 0.10 g magnesium chloride, 0.06 g disodium-monohydrogen phosphate, 0.06 g monopotassium dihydrogen phosphate, 0.10 g magnesium sulfate and 1.0 g glucose in 1 liter of distilled water and adjusting the solution to pH 7.2 with solid sodium bicarbonate (about 350 mg).

Test [3] concerns the target glycylhistidyllysine tripeptidylaminopeptidase (Gly-His-Lys-AP). The experiment in a line: Gly-His-Lys-AP inhibition assay. The class given is biochemical. Particulars: enzyme from FM3A cells (mouse mammary tumor), Hanks solution pH 7.2, 37° C., 30 minutes. The protocol: For enzyme assay, 0.25 ml of 0.5 mM glycyl-L-α-histidyl-L-α-lysyl-β-naphthylamide, 0.62 ml of the Hanks solution, pH 7.2, and 0.1 ml of an aqueous solution of a substance to be tested were combined and maintained at 37° C. for 3 minutes. Gly-His-Lys-AP solution (0.03 ml) which was purified from the FM3A cells (a line of culture cells derived from mouse mammary tumor) by the method described in the reference of (4) was added to the solution and incubated at 37° C. for 30 minutes. The inhibition percentage was calculated as shown in (1).
Gly-His-Lys -β-naphthylamide used above was prepared as follows: to a solution containing 1 g of Gly-His-Lys-acetate (Buchem Fine Chemicals Co.) and 3.0 g of sodium bicarbonate in 60 ml of distilled water, 2.13 ml of Z-Cl was added dropwise under cooling with ice and then stirred for 3 hours. The same treatment as detailed above in Experiment 1-(7) was performed to give 605.8 mg of the Z-derivative of the tripeptide. […]

Another test concerns the target T3, papain (Carica papaya, UniProt P00784).
T3 sequence (P00784 134-345): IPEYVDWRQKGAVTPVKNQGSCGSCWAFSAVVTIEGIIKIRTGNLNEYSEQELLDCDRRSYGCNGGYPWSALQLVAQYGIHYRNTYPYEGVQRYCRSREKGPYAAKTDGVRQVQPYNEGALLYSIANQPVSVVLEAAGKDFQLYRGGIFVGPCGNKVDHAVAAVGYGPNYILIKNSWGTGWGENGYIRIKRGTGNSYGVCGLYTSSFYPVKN
The conditions noted are these: prior art; cited from earlier work.

The target in another test is T4, trypsin (Bos taurus, UniProt P00760).
T4 construct: gene PRSS1
T4 sequence (P00760 24-246): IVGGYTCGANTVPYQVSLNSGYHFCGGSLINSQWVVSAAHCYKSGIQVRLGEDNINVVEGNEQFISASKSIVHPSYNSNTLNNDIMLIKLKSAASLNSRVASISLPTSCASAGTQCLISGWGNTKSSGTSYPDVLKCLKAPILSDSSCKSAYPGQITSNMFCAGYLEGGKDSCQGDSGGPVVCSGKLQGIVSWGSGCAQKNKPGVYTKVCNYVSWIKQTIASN
Particulars: prior art; cited from earlier work.

A further test deals with pepsin (Homo sapiens, UniProt P0DJD8). Particulars: prior art; cited from earlier work.
Chain of pepsin (P0DJD8 63-388): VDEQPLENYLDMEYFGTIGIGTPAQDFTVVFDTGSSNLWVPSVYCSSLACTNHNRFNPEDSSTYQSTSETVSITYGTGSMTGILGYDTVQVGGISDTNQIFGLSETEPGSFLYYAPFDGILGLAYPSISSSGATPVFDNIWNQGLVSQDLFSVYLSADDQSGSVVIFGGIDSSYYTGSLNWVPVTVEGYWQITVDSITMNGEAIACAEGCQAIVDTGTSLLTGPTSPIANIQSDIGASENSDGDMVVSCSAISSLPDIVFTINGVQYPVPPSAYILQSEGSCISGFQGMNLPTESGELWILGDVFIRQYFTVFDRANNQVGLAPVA

Chain of aminopeptidase A (Q07075 whole entry, species assumed): as the sequence (Q07075 whole entry) above

Consider `CC(C)C[C@H](NC(=O)[C@@H](O)[C@H](N)Cc1ccccc1)C(=O)O` [Bestatin, [(2S,3R)-3-amino-2-hydroxy-4-phenylbutanoyl]-L-leucine], for which the “inhibition of aminopeptidase B” value on aminopeptidase B is “inhibits”. For the same compound, on leucine aminopeptidase, the “inhibition of leucine aminopeptidase” value is on record as “inhibits”. In addition, the “inhibition of aminopeptidase A” value on aminopeptidase A was “does not have any inhibitory effect”.
Consider `CC(C)C[C@@H](N)[C@H](O)C(=O)N[C@@H](CCC(=O)O)C(=O)N[C@H](C(=O)N[C@@H](CC(=O)O)C(=O)O)C(C)C` [X--Glu--Val--Asp, (2S,3R)-AHMHA-Glu-Val-Asp], for which the IC50 on aminopeptidase A (AP-A) was 3.96 µM; in test [1], 79.3 µM. Also, the “IC/50 Gly--Pro--Leu--AP: amount of the peptide to inhibit the intact activity of the target enzyme by 50%” value in [2] is 6 µg/mL. The “IC/50 Gly--His--Lys--AP: amount of the peptide to inhibit the intact activity of the target enzyme by 50%” value in [3] came to 2.0 µg/mL.
On to `CC(C)C[C@@H](N)[C@H](O)C(=O)N[C@H](C(=O)N[C@@H](CCC(=O)O)C(=O)N[C@@H](CC(=O)O)C(=O)O)C(C)C` [X--Val--Glu--Asp, (2S,3R)-AHMHA-Val-Glu-Asp], for which the IC50 at aminopeptidase A (AP-A) was 15.9 µM; in [1], 0.198 µM. Further, the “IC/50 Gly--Pro--Leu--AP: amount of the peptide to inhibit the intact activity of the target enzyme by 50%” value in test [2] was 15 µg/mL. Besides, in [3], the “IC/50 Gly--His--Lys--AP: amount of the peptide to inhibit the intact activity of the target enzyme by 50%” value came to 100 µg/mL.
Turning to `CC(C)[C@H](NC(=O)[C@H](CCCNC(=N)N)NC(=O)N[C@@H](Cc1ccccc1)C(=O)O)C(=O)N[C@H](C=O)CCCNC(=N)N` [antipain] ({Phe-CO}-Arg-Val-Arg-aldehyde), the inhibition of papain result on papain is recorded as “inhibit”.
As for `CC(=O)N[C@@H](CC(C)C)C(=O)N[C@@H](CC(C)C)C(=O)N[C@H](C=O)CCCNC(=N)N` [leupeptin], the inhibition of trypsin entry at trypsin is listed as “inhibit”.
On to `CC(C)CC(=O)N[C@H](C(=O)N[C@H](C(=O)N[C@@H](CC(C)C)[C@@H](O)CC(=O)N[C@@H](C)C(=O)N[C@@H](CC(C)C)[C@@H](O)CC(=O)O)C(C)C)C(C)C` [pepstatin] (Isovaleryl-VV[Sta]A[Sta]-OH), for which the inhibition of pepsin entry at pepsin is given as “inhibit”.
